Entries after “also recorded” stand apart in the source; their conditions may differ. Structures can show the parent of a compound that is named as a salt.
Columns and labels:
mice = experiment: hot plate test in mice (influence on morphine analgesia); format: in vivo; details: for analgesia when given alone (in words): alone: morphine HCl 1 mg/kg sc., deramciclane 30 mg/kg ip., buspiron HCl 30 mg/kg ip.; for influence on the analgesic effect of morphine (in words): 30 mg/kg ip. with morphine HCl 1 mg/kg sc.
Protocol: A modified of method of Eddy et al. (Eddy, N. B., Leimback, D., Synthetic Analgesics II. Dithienylbutenyl and Dithienylbutylamines. J. Pharmacol. Exp. Ther. 107: p. 385-393, 1953) was used. Male NMRI nice (20-25 g bodyweight) were dropped on a hot plate (56±0.5° C.) and the latency time elapsed until licking the forepaws was measured. The reaction time was tested twice before treatment. […] Mice were treated either with saline or with morphine HCl 1 mg/kg subcutaneously and at the same time either with vehicle or with deramciclane or buspirone, HCl 30 mg/kg intraperitoneally, respectively. After the treatment (15, 30, 45 and 60 min.) the reaction time was measured again. Animals were regarded as positive if they produced a 2.5-fold reaction time increase at least twice compared to their first control values. Statistical analysis was performed using the chi-square method.

[1] = 10 and 30 mg/kg after oral treatment; cited from earlier work
[2] = in the above mentioned doses (0.7-30 mg/kg); cited from earlier work
[3] = single 0.7 mg/kg oral treatment; cited from earlier work
[4] = 1 and 10 mg/kg after oral administration; cited from earlier work
[5] = single oral dose of 3 mg/kg; cited from earlier work
[6] = Morphine HCl 1 mg/kg sc. + 0.4% methyl cellulose ip.
[7] = Morphine HCl 1 mg/kg sc. + Saline ip.
[8] = Saline sc. + Buspiron HCl 30 mg/kg ip.

CN1CC[C@]23c4c5ccc(O)c4O[C@H]2[C@@H](O)C=C[C@H]3[C@H]1C5.Cl [Morphine HCl, morphine HCl]
Effect % (mice; [6]): 0%
Positive/treated animals (mice; [6]): 0/10
Effect % (mice; [7]): 0%
Positive/treated animals (mice; [7]): 0/10
analgesia when given alone (in words) (mice): Neither morphine HCl 1 mg/kg sc. nor deramciclane 30 mg/kg ip. nor buspiron HCl 30 mg/kg ip. alone produced analgesia

O=C1CC2(CCCC2)CC(=O)N1CCCCN1CCN(c2ncccn2)CC1 [Buspiron HCl, buspirone, HCl]
influence on the analgesic effect of morphine (in words) (mice): did not influence the analgesic effect of morphine
Effect % (mice; [8]): 0%
Positive/treated animals (mice; [8]): 0/10
analgesia when given alone (in words) (mice; listed as buspiron HCl, HCl): Neither morphine HCl 1 mg/kg sc. nor deramciclane 30 mg/kg ip. nor buspiron HCl 30 mg/kg ip. alone produced analgesia
analgesia when given alone (in words) (mice; listed as buspiron, HCl): neither deramciclane nor buspiron possess analgesic effect in itself

(1R,2S,4R)-(−)-2-[N,N-(dimethylaminoethoxy)]-2-phenyl-1,7,7-trimethylbicyclo[2.2.1]heptane [Deramciclane]
activity in marble burying model [1]: active
influence on the analgesic effect of morphine (in words) (mice): potentiation of the analgesic effect of morphine
Effect % (mice; Saline sc. + Deramciclane 30 mg/kg ip.): 0%
Positive/treated animals (mice; Saline sc. + Deramciclane 30 mg/kg ip., positive = 2.5-fold reaction time increase at least twice, 15-60 min): 0/10
analgesia when given alone (in words) (mice): Neither morphine HCl 1 mg/kg sc. nor deramciclane 30 mg/kg ip. nor buspiron HCl 30 mg/kg ip. alone produced analgesia; also recorded: neither deramciclane nor buspiron possess analgesic effect in itself
analgesic activity [2]: did not possess analgesic activity
time spent with social interactions [3]: increased the time spent with social interactions
activity in Vogel punished drinking test [4]: active
activity in light-dark model [5]: active

Reference: US20070244102A1, “Combination of Dermaciclane and Opoids as Analgesics” (priority 2004, published 2007)
